Data: patent publication US10851152B2, “Polymerized peptide and gel having collagen-like structure” (WASEDA UNIVERSITY, priority 2015, dated 2020)
Non-standard residues stand in square brackets, D forms with d. No end group written: not given here. Hyp = O=C(O)[C@@H]1C[C@@H](O)CN1

Experiments:
HDF = experiment: Cell adhesion assay on coated 96-well plate, HDF; format: cell-based, Human; conditions: 37° C., 5% CO2, 60 min
Description: (§1) D-MEM High Glucose, D-MEM Low Glucose and 0.5% trypsin/EDTA were purchased from Wako Pure Chemical Industries, Ltd. (Osaka); FBS, penicillin. streptomycin (100×) were purchased from Invitrogen (Thermo Fisher Scientific corporation). Human mammary gland cancer (MDA-MB-231) was purchased from ATCC; Human skin fibroblasts (HDF) were purchased from Cell Applications. MDA-MB-231 was cultured using DMEM High Glucose (10% FBS, 100 Units/ml penicillin, 100 μg/ml streptomycin), and then maintained; and HDF was cultured using DMEM Low Glucose (10% FBS, 100 Units/ml penicillin, 100 μg/ml streptomycin), and then maintained. When used in cell adhesion assay and Western blotting, the cells were treated with 0.05% trypsin/EDTA, and then collected in a 15 ml tube to be subjected to centrifugal treatment at 1,200 rpm for four minutes. After the removal of the supernatant, the cells were suspended with an incubation medium by which the cells were incubated at 37° C. for 20 to 30 min and then recovered. Such cell suspension was used for cell adhesion assay and Western blotting.
(§2) Type I collagen (KOKEN CO., LTD, Tokyo) and BSA (Jackson Immuno Research Laboratories Inc., USA), in an aqueous solution as 30 μg/ml, were added to a 96-well plate (Nunc MicroWell 96-Well Microplates) by an amount of 50 μl/well, followed by drying the sample for two nights. Collagen-like peptides having no Cys residue were prepared as aqueous solutions of 1 to 3 mg/ml, and then heated at 95° C. for 5 min, followed by storing them at 4° C. overnight to form the triple-helical structure. Then, they were diluted to 30 μg/ml, and then added to a 96-well plate in an amount of 50 μl/well followed by drying them for two nights. Collagen-like peptides having Cys residues were dissolved in a degassed 0.05% (v/v) TFA aqueous solution, followed by preparing to a concentration of 300 μg/ml, and then heating the sample at 80° C. for 5 min. […] Further, a mineral oil was layered on the peptide solution, and such peptide solution was then oxidized at room temperature until thiol could no longer be detected by Ellman's test. […]

MDA-MB-231 = experiment: Cell adhesion assay on coated 96-well plate, MDA-MB-231; format: cell-based, Human
Description: as §1, §2

[1] = CD spectrum measurement of triple-helical structure and its thermal stability; format: physicochemical; conditions: 1 mg/ml in 0.05% TFA/H2O; measured at 4° C., 37° C. and 80° C.
Description: The structure of the peptide was confirmed by CD spectrum (circular dichroism spectrometer J-820, JASCO Corporation). A peptide powder was dissolved in a degassed 0.05% TFA/H2O to prepare a solution of 1 mg/ml. After heating at 80° C. for 5 min, the solution was left to stand at 4° C. overnight to cause refolding as a measurement sample. CD spectrum was measured under the conditions of: temperature 4° C., 37° C., 80° C.; cell length 0.05 cm; sensitivity standard (100 mdeg); measurement wavelength 250 to 190 nm; data collection interval 0.2 nm; scanning speed 50 nm/min; response 0.5 sec; band width 1 nm; cumulated number 4. A signal obtained (θobs) was expressed as a residue average molar ellipticity (θmrw). θmrw was calculated by the following formula.
A thermal stability of the triple-helical structure was observed by monitoring θmrw, 225 associated with a change in temperature. The measurement conditions were: 4 to 75° C. or 4 to 90° C.; cell length 0.05 cm; measurement wavelength 225 nm; data collection interval 0.5° C.; temperature gradient 18° C./h; sensitivity standard (100 mdeg); response 2 sec; band width 1 nm. It was determined that the triple-helical structure completely turned into a random coil structure in a region where the signal was linearly diminishing.

[2] = Remaining thiol group (Ellman's reagent) in oxidative polymerization reaction; format: physicochemical; conditions: SH amount at 0 hour being 100%; 10% DMSO, peptide 1% (w/v); 74 hours
Description: Degassed water was used to prepare a peptide solution having a concentration of 1.11% (w/v), and the solution was then put into a PCR tube. After heating this solution at 80° C. for 5 min, it was then left to sand still at 4° C. overnight. By adding DMSO to this solution, there was prepared a peptide solution having a final concentration of 10% DMSO, peptide 1% (w/v). The PCR tube was then filled with a mineral oil in a way such that the mineral oil covered the surface of the solution. In every measurement, the mineral oil was eliminated from the peptide solution to prepare a peptide solution for oxidation monitoring. Ellman's reagent was prepared in a way such that 9 mg/ml of DTNB was present in 50 mM of a phosphate buffer solution (pH 8.4). 33 mM phosphate buffer solution (pH 8.4) and Ellman's reagent 1.5 mg/ml were left to stand for […], then a light absorbance was then measured after a solution with a final concentration of peptide 0.167 mg/ml. Recorded were changes in absorbance with time, with a moment when DMSO was added being a starting point (0 hour). Since the Ellman's reagent generates 5-mercapto-2-nitrobenzoate (λ max=412 nm, ε=1.55×10^4) depending on the amount of thiol groups (referred to as “SH groups” hereunder) in the peptide, measured was a absorbance at 412 nm. After the measurement, optical path length was compensated by measuring absorbance at 997 nm and 900 nm.

[3] = Hydrogel formation judged by holding of a stainless ball; format: physicochemical; conditions: 1% (w/v) peptide, 10% DMSO, room temperature, up to three days
Description: Degassed water was used to prepare a peptide solution having a concentration of 1.11% (w/v) or 1.66% (w/v), and the solution was then put into a PCR tube. After heating this solution at 80° C. for 5 min using a polymerase chain reaction (PCR) machine (TaKaRa PCR Thermal Cycler, TAKARA BIO INC.), the solution was then left to stand at 4° C. overnight. By adding DMSO and water to this solution, there was prepared a peptide solution having a concentration of 10% DMSO, 0.1 to 1.5% (w/v). The PCR tube was then filled with a mineral oil in a way such that the mineral oil covered the liquid surface, followed by allowing the solution to stand at room temperature for a given period of time to achieve a gel. Then, gel formation was determined by looking at whether a stainless ball could be held by the gel.

Substance: G(POG)7IKGHRGFSGLOG(POG)6-NH2 [Soluble KGHRGF]
- cell adhesion of HDF (HDF): cellular adhesion was not observed

Substance: G(POG)4PRGQOGVMGFOG(POG)4-NH2 [Soluble GVMGFO]
- cell adhesion of HDF (HDF): cellular adhesion was not observed

Substance: Ac-G(POG)4FOGERG(POG)5-NH2 (GPPGPPGPPGPPGFPGERGPPGPPGPPGPPGPPG; HELM PEPTIDE1{[ac].G.P.[Hyp].G.P.[Hyp].G.P.[Hyp].G.P.[Hyp].G.F.[Hyp].G.E.R.G.P.[Hyp].G.P.[Hyp].G.P.[Hyp].G.P.[Hyp].G.P.[Hyp].G.[am]}$$$$V2.0; SMILES CC(=O)NCC(=O)N1CCC[C@H]1C(=O)N1C[C@H](O)C[C@H]1C(=O)NCC(=O)N1CCC[C@H]1C(=O)N1C[C@H](O)C[C@H]1C(=O)NCC(=O)N1CCC[C@H]1C(=O)N1C[C@H](O)C[C@H]1C(=O)NCC(=O)N1CCC[C@H]1C(=O)N1C[C@H](O)C[C@H]1C(=O)NCC(=O)N[C@@H](Cc1ccccc1)C(=O)N1C[C@H](O)C[C@H]1C(=O)NCC(=O)N[C@@H](CCC(=O)O)C(=O)N[C@@H](CCCNC(=N)N)C(=O)NCC(=O)N1CCC[C@H]1C(=O)N1C[C@H](O)C[C@H]1C(=O)NCC(=O)N1CCC[C@H]1C(=O)N1C[C@H](O)C[C@H]1C(=O)NCC(=O)N1CCC[C@H]1C(=O)N1C[C@H](O)C[C@H]1C(=O)NCC(=O)N1CCC[C@H]1C(=O)N1C[C@H](O)C[C@H]1C(=O)NCC(=O)N1CCC[C@H]1C(=O)N1C[C@H](O)C[C@H]1C(=O)NCC(N)=O) [Soluble GFOGER]
- cell adhesion of MDA-MB-231 (MDA-MB-231; coated 96-well plate): cell adhesion was not observed
- cell adhesion of HDF (HDF): cellular adhesion was not observed

Substance: YCC(POG)5FOGERG(POG)5CCY (YCCP[Hyp]GP[Hyp]GP[Hyp]GP[Hyp]GP[Hyp]GF[Hyp]GERGP[Hyp]GP[Hyp]GP[Hyp]GP[Hyp]GP[Hyp]GCCY; not fully specified; cysteine pairing not given here) [YCC2-GFOGER]
- content of YCC2-GFOGER giving the same level of cell adhesion capability as collagen (MDA-MB-231; mixed polymerized peptide of YCC2 and YCC2-GFOGER, MDA-MB-231, 180 min): 30%

Substance: YCCGPPOGGOPOGPPOGGOPOGRPOGPPOGGOPOGCCY (YCCGPP[Hyp]GG[Hyp]P[Hyp]GPP[Hyp]GG[Hyp]P[Hyp]GRP[Hyp]GPP[Hyp]GG[Hyp]P[Hyp]GCCY; not fully specified; cysteine pairing not given here) [YCC2-Scr]
- formation of triple-helical structure (CD spectrum, positive Cotton effect at about 225 nm) [1]: did not form the triple-helical structure
- ratio of SH amount [2]: approximately 0%
- gel-forming capability [3]: did not turn into a gel
